Source: publication PMC12188165, “Engineering of the Thiamine Diphosphate‐Dependent JanthE for the Synthesis of Tertiary Alcohols” (Chemistry (Weinheim an Der Bergstrasse, Germany), 2025)
Like-named read-outs stand apart in the source and are kept apart here.

How the values were obtained:
JanthE = molecular target: T1, JanthE (Janthinobacterium sp. HH01, UniProt A0AAT8XUE4, K568S, form not given); assay: initial-rate kinetics, formation of product […]; type: biochemical; details: 1 mM Mg2+, 0.05 mM ThDP, 200 mM NaCl, 100 mM sodium phosphate pH 8, read-out: K567S
T1 construct: purified enzyme; expression and tag details only in supplement
T1 sequence (A0AAT8XUE4 entry or part of it K568S, form open): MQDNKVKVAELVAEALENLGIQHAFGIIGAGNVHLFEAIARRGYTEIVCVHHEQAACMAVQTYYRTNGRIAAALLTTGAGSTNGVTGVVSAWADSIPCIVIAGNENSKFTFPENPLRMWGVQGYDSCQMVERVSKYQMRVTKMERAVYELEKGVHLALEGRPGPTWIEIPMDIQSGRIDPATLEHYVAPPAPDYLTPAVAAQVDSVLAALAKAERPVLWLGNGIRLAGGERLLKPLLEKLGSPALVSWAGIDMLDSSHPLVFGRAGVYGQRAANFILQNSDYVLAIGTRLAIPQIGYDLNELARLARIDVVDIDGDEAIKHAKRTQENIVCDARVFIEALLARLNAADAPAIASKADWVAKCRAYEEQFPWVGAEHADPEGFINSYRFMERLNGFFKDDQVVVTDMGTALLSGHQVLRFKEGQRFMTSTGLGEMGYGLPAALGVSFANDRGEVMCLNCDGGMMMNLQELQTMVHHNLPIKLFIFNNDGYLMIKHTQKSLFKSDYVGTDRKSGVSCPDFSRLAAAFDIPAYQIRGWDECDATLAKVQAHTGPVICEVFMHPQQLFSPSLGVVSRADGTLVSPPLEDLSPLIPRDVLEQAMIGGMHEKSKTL

purified protein [1] = substrate: CC(=O)COc1ccccc1; assay: purified protein; type: biochemical, Janthinobacterium sp. HH01; details: 50 mM 2-oxobutanoate co-substrate, 1 mM Mg2+, 0.05 mM ThDP, 200 mM NaCl, 100 mM sodium phosphate pH 8
purified protein [2] = substrate: CCC(=O)C(=O)O; assay: purified protein; type: biochemical, Janthinobacterium sp. HH01; details: 20 mM phenoxy-2-propanone co-substrate, 1 mM Mg2+, 0.05 mM ThDP, 200 mM NaCl, 100 mM sodium phosphate pH 8

Question: With `CC(=O)COc1ccccc1` [compound 6, phenoxy-2-propanone] as the molecule, how does the Km (JanthE; 50 mM 2-oxobutanoate co-substrate) read?
Answer: 31.8 ± 6 mM

Question: How did the Km (JanthE; 20 mM phenoxy-2-propanone co-substrate) turn out when `CCC(=O)C(=O)O` [compound 2, 2-oxobutanoate] was run?
Answer: 0.74 ± 0.31 mM

B1: JanthE (Janthinobacterium sp. HH01) (protein)
chain: MQDNKVKVAELVAEALENLGIQHAFGIIGAGNVHLFEAIARRGYTEIVCVHHEQAACMAVQTYYRTNGRIAAALLTTGAGSTNGVTGVVSAWADSIPCIVIAGNENSKFTFPENPLRMWGVQGYDSCQMVERVSKYQMRVTKMERAVYELEKGVHLALEGRPGPTWIEIPMDIQSGRIDPATLEHYVAPPAPDYLTPAVAAQVDSVLAALAKAERPVLWLGNGIRLAGGERLLKPLLEKLGSPALVSWAGIDMLDSSHPLVFGRAGVYGQRAANFILQNSDYVLAIGTRLAIPQIGYDLNELARLARIDVVDIDGDEAIKHAKRTQENIVCDARVFIEALLARLNAADAPAIASKADWVAKCRAYEEQFPWVGAEHADPEGFINSYRFMERLNGFFKDDQVVVTDMGTALLSGHQVLRFKEGQRFMTSTGLGEMGYGLPAALGVSFANDRGEVMCLNCDGGMMMNLQELQTMVHHNLPIKLFIFNNDGYLMIKHTQKSLFKSDYVGTDRKSGVSCPDFSRLAAAFDIPAYQIRGWDECDATLAKVQAHTGPVICEVFMHPQQLFSPKLGVVSRADGTLVSPPLEDLSPLIPRDVLEQAMIGGMHEKSKTL
notes: purified enzyme; expression and tag details only in supplement
Question: B1 was tested. Which Km (purified protein [1]) did it give?
Answer: 24.6 ± 3.8 mM

Question: What about the Km (purified protein [2]) of the same molecule?
Answer: 0.92 ± 0.26 mM
